Assay results reported in paper PMC9206137, “Synergistic anti-SARS-CoV-2 activity of repurposed anti-parasitic drug combinations” (BMC Pharmacology & Toxicology, 2022).
Several values for one entry are separate records, joined by “and”; a condition that tells them apart may be missing. Identical values can stand only once.

Columns and labels:
SARS-CoV-2 [1] = assay: Antiviral activity against SARS-CoV-2 in Vero E6 cells, plaque assay; assay type: cell-based
[2] = Cell viability assay (MTT) in Vero E6 cells; details: African green monkey, %cell viability, Vero E6, replicates
Description: Subsequently, the cell viability was assessed using MTT dyes (Invitrogen) in duplicate (Supplementary file 1). The procedure was described elsewhere. The viability of drug-treated cells was expressed as percent cell viability relative to 0.5% DMSO-treated cells.

SARS-CoV-2 [3] = details: because of the expression of TMPRSS2; cited from earlier work
SARS-CoV-2 [4] = assay: Antiviral activity against SARS-CoV-2 in Vero E6 cells, one-step qRT-PCR (single drugs, two-drug combinations, synergy analysis); details: for %inhibition (qRT-PCR) / % inhibition: replicates; for % inhibition: Vero E6 cells

`CCN(CC)CCCC(C)Nc1ccnc2cc(Cl)ccc12` (stereo not shown) [Chloroquine, chloroquine] showed an inhibition at 0.625 µM (SARS-CoV-2 [1]; Severe acute respiratory syndrome coronavirus 2, Vero C1008, Vero E6, chloroquine 0.625 uM, replicates) of 50%, an inhibition at 1.25 µM (SARS-CoV-2 [1]; Severe acute respiratory syndrome coronavirus 2, Vero C1008, Vero E6, chloroquine 1.25 uM, replicates) of 61.4% and an inhibition at 2.5 µM (SARS-CoV-2 [1]; Severe acute respiratory syndrome coronavirus 2, Vero C1008, Vero E6, chloroquine 2.5 uM, replicates) of 70%. For the same compound, the inhibition at 5 µM (SARS-CoV-2 [1]; Severe acute respiratory syndrome coronavirus 2, Vero C1008, Vero E6, chloroquine 5 uM, replicates) was 85.1%, the IC50 (SARS-CoV-2 [1]; Severe acute respiratory syndrome coronavirus 2, Vero C1008, Vero E6, MOI 0.01, 48 hours, single drug) was 0.83 µM and the “%inhibition (plaque assay)” value (SARS-CoV-2 [1]; Vero E6, chloroquine 0.15625 uM, replicates) was 5.00% and 10.00%. For the same compound, the “%inhibition (plaque assay)” value (SARS-CoV-2 [1]; Vero E6, chloroquine 0.3125 uM, replicates) was 15.00% and 6.06% and 11.00%, the “%inhibition (plaque assay)” value (SARS-CoV-2 [1]; Vero E6, chloroquine 0.625 uM, replicates) was 55.50% and the “%inhibition (plaque assay)” value (SARS-CoV-2 [1]; Vero E6, chloroquine 1.25 uM, replicates) was 73.20% and 66.30%. The “%inhibition (plaque assay)” value (SARS-CoV-2 [1]; Vero E6, chloroquine 2.5 uM, replicates) was 75.00% and 69.50%, the “%inhibition (plaque assay)” value (SARS-CoV-2 [1]; Vero E6, chloroquine 5 uM, replicates) was 87.00% and 85.00% and the viability at 48 h, 40 uM ([2]; chloroquine 40 uM) was 78.5%. The viability at 48 h, 160 uM ([2]; chloroquine 160 uM) was 34.5%, the “inhibition of SARS-CoV-2 in human lung cells” value (SARS-CoV-2 [3]) was “could not inhibit” and the “%inhibition (qRT-PCR)” value (SARS-CoV-2 [4]; Vero E6, chloroquine 0.15625 uM) was 14.20% and 15.40% and 13.50%. The “%inhibition (qRT-PCR)” value (SARS-CoV-2 [4]; Vero E6, chloroquine 0.3125 uM) was 29.59% and 23.98%, the “%inhibition (qRT-PCR)” value (SARS-CoV-2 [4]; Vero E6, chloroquine 0.625 uM) was 47.22% and 54.26% and 49.79% and the “%inhibition (qRT-PCR)” value (SARS-CoV-2 [4]; Vero E6, chloroquine 1.25 uM) was 51.48% and 58.46% and 54.05%. For the same compound, the “%inhibition (qRT-PCR)” value (SARS-CoV-2 [4]; Vero E6, chloroquine 2.5 uM) was 67.75% and 70.05% and 70.73%, the “%inhibition (qRT-PCR)” value (SARS-CoV-2 [4]; Vero E6, chloroquine 5 uM) was 88.11% and 84.26% and 88.40% and the “% inhibition” value (SARS-CoV-2 [4]; Chloroquine 0.2125 uM alone) was 32.17% and 30.26% and 30.74%. The “% inhibition” value (SARS-CoV-2 [4]; Chloroquine 0.425 uM alone) was 35.38% and 45.66% (2×), the “% inhibition” value (SARS-CoV-2 [4]; Chloroquine 0.85 uM alone) was 58.25% and 55.25% and 59.67% and the “% inhibition” value (SARS-CoV-2 [4]; Chloroquine 1.7 uM alone) was 76.18% and 70.48% and 73.21%. The IC50 (SARS-CoV-2 [4]; read-out: IC50 (μM) qRT-PCR, Vero E6, MOI 0.01, 48 hours, single drug) was 0.89 µM.
